{"source": "paper PMC10267561", "about": "“PI3P-dependent regulation of cell size and autophagy by phosphatidylinositol 5-phosphate 4-kinase” (Life Science Alliance, 2023)", "molecular_target": "T1, Mtm (Mtm^WT::GFP) (Drosophila melanogaster, UniProt Q9VMI9)", "T1 construct": "C-terminal GFP tag, overexpressed (da-Gal4) in third instar larvae, whole larval lysate; ~100 kD", "T1 sequence (Q9VMI9 1-619)": "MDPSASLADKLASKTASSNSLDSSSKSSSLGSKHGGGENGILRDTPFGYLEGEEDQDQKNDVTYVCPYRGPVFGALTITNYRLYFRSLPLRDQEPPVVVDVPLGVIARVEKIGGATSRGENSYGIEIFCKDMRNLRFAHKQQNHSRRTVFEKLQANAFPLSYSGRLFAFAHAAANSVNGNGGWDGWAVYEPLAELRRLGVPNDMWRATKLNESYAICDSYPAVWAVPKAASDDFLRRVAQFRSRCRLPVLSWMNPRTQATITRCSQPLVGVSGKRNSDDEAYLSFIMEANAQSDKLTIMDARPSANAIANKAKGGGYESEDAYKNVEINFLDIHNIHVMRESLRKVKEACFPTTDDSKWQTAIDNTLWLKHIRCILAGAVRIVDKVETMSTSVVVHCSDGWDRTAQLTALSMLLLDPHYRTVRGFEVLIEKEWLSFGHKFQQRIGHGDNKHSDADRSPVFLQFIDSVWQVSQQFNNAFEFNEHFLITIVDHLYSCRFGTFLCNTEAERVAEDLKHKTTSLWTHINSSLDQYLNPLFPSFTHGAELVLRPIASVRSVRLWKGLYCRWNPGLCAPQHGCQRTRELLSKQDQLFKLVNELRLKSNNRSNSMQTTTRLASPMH", "experiment": "LC-MS/MS in vitro 3-phosphatase assay, overexpressing larval lysate vs control lysate", "assay_type": "biochemical", "conditions": "pH 7.4 lipid suspension, phosphatidylserine, 15 min, 37 °C; 10 ug lysate protein"}
{"compound": "CCCCC/C=C\\C/C=C\\C/C=C\\C/C=C\\CCCC(=O)O[C@H](COC(=O)CCCCCCCCCCCCCCCC)COP(=O)(O)O[C@@H]1[C@H](O)[C@H](OP(=O)(O)O)[C@@H](O)[C@H](O)[C@H]1O", "note": "[17:0 20:4 PI3P]", "values": [{"measurement": "3-phosphatase activity, overexpressing vs control lysate", "result": "lysates with Mtm overexpression showed significantly higher PI3P 3-phosphatase activity compared with control lysates"}]}
